Experimental findings from patent US12441726B2, “Compounds and uses thereof” (Foghorn Therapeutics Inc., priority 2020, dated 2025) are described below.

A value given as a limit tells only on which side of the number the result lay.

BRM, sequence (P51531 whole entry): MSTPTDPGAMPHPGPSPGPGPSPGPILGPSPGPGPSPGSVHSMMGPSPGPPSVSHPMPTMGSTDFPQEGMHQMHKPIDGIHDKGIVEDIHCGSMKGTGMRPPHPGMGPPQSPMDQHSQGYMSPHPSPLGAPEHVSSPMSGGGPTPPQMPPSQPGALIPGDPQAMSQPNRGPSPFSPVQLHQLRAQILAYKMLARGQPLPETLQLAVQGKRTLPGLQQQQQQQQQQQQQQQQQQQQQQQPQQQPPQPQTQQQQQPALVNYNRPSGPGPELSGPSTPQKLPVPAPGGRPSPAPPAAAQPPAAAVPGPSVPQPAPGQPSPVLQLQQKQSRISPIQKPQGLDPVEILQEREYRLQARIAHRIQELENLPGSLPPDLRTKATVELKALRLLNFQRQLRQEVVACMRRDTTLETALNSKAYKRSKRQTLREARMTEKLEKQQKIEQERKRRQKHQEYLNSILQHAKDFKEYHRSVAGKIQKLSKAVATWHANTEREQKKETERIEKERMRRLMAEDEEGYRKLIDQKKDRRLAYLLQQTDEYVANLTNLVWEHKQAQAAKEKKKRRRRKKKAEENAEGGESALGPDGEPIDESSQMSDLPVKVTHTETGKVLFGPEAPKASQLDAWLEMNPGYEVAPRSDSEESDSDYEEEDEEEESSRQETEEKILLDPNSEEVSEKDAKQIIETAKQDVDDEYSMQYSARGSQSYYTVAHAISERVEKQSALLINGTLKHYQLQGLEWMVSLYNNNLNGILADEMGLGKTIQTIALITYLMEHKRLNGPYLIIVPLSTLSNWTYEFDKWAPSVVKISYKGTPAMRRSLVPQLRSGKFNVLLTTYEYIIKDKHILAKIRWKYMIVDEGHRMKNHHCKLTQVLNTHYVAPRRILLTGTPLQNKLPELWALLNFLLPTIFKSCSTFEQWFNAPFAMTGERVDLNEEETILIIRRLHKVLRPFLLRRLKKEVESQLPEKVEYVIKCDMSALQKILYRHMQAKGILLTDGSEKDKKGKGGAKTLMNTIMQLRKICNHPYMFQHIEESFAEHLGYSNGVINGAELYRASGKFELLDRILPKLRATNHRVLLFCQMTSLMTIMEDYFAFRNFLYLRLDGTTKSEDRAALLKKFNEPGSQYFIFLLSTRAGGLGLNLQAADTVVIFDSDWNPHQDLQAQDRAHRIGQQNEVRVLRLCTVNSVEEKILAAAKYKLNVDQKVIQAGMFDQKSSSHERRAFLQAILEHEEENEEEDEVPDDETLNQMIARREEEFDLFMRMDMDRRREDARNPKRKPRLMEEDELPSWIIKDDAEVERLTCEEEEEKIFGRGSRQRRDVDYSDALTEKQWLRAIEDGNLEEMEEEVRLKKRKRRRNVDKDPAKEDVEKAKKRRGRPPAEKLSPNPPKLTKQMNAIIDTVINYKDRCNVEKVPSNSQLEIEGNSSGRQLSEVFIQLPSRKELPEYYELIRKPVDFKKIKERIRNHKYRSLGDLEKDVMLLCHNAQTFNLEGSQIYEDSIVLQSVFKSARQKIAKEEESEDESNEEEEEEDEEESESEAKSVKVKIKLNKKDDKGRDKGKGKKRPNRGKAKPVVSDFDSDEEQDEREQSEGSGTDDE

One test addresses BRM (Homo sapiens, UniProt P51531). Nature of the test: ATPase catalytic activity assay (ADP-Glo), BRM. Conditions: 30 nM BRM, 400 μM ATP.
For `CC(F)(F)c1cncc(-c2ccc3cnc(CNC(=O)c4ccc5c(c4)[C@](C)(C#N)COC5)cc3n2)n1` [Compound 299], the “BRM Max % Inhibition” value is given as 99%.
In the case of `C[C@@]1(C#N)COCc2ccc(C(=O)NCc3cc(CCc4ccccc4)ccn3)cc21` [Compound 25], the “BRM Max % Inhibition” value is 94%.
With `COc1ccc([C@H]2C[C@@H](c3ccnc(CNC(=O)c4ccc5c(c4)[C@](C)(C#N)COC5)c3)C2)cc1` [Compound 70], the “BRM Max % Inhibition” value came out at 94%.
Regarding `C[C@@]1(C#N)COCc2c(F)cc(C(=O)NCc3cc4cc(-c5cncc(N6CCC6)n5)ccc4cn3)cc21` [Compound 270], the “BRM Max % Inhibition” value is given as 104%.
In the case of `C[C@@]1(C#N)COCc2ccc(C(=O)NCc3cc4nc(-c5ccnc(N6CC[C@H](F)C6)n5)ccc4cn3)cc21` [Compound 341], the “BRM Max % Inhibition” value came to 100%.
Regarding `O=C(NCc1cc2nc(-c3cncc(C4CC4)n3)ccc2cn1)c1cnc2c(c1)C(O)(C(F)F)COC2` (centres unmarked) [Compound 246], the “BRM Max % Inhibition” value is listed as 88%.
Consider `C[C@@]1(C#N)COCc2ccc(C(=O)NCc3cc4nc(-c5cnc6cccnn56)ccc4cn3)cc21` [Compound 436], for which the “BRM Max % Inhibition” value is recorded as 100%.
Turning to `C[C@@]1(F)COCc2ccc(C(=O)NCc3cc4nc(-c5cccc(N6CCC6)n5)ccc4cn3)cc21` [Compound 295], the “BRM Max % Inhibition” value turned out to be 100%.
For `C[C@@]1(F)COCc2ncc(C(=O)NCc3cc4nc(-c5cccc(N6CCC6)n5)cnc4cn3)cc21` [Compound 216], the “BRM Max % Inhibition” value came to 98%.
As for `COCCNC(=O)c1cccc(C#Cc2ccnc(CNC(=O)c3ccc4c(c3)[C@](C)(C#N)COC4)c2)c1` [Compound 83], the “BRM Max % Inhibition” value came to 101%.
Regarding `C[C@@]1(CO)CCc2ccc(C(=O)NCc3cc4nc(-c5ccccc5)ccc4cn3)cc21` [Compound 90], the “BRM Max % Inhibition” value was 82%.
With `CO[C@@H]1CCN(c2cncc(-c3ccc4cnc(CNC(=O)c5ccc6c(c5)[C@](C)(F)COC6)cc4c3)n2)C1` [Compound 266], the “BRM Max % Inhibition” value turned out to be 103%.
Regarding `C[C@@]1(C#N)COCc2ccc(C(=O)NCc3ncc4ccc(-c5ccccc5)cc4n3)cc21` [Compound 522], the “BRM Max % Inhibition” value is listed as 97%.
Turning to `COc1cc(Cl)ccc1-c1ccc2cnc(CNC(=O)c3ccc4c(c3)[C@](C)(C#N)COC4)cc2n1` [Compound 156], the “BRM Max % Inhibition” value was 99%.
On to `Cn1cc2c(n1)CN(c1ccc3cnc(CNC(=O)c4ccc5c(c4)[C@](C)(C#N)COC5)cc3n1)CC2` [Compound 458], for which the “BRM Max % Inhibition” value was determined as 95%.
In the case of `C[C@@]1(F)COCc2ccc(C(=O)NCc3cc4nc(-c5cccc(C6(O)CC(F)(F)C6)n5)ccc4cn3)cc21` [Compound 169], the “BRM Max % Inhibition” value worked out at 98%.
In the case of `C[C@@]1(C#N)COCc2ccc(C(=O)NCc3cc(N4CCC(O)(c5ccccc5)C4)ccn3)cc21` (some centres unmarked) [Compound 54], the “BRM Max % Inhibition” value came to 81%.

Still in this test, the particulars now being: BRM ATPase: IC50 (uM), 30 nM BRM, 400 μM ATP.
The IC50 is the concentration that gives 50% inhibition. `CC(F)(F)c1cncc(-c2ccc3cnc(CNC(=O)c4ccc5c(c4)[C@](C)(C#N)COC5)cc3n2)n1` [Compound 299] came in with a half-maximal inhibitory concentration (IC50) of under 0.1 µM.
In the case of `C[C@@]1(C#N)COCc2ccc(C(=O)NCc3cc(CCc4ccccc4)ccn3)cc21` [Compound 25], the IC50 is 0.1 to 0.5 µM.
`COc1ccc([C@H]2C[C@@H](c3ccnc(CNC(=O)c4ccc5c(c4)[C@](C)(C#N)COC5)c3)C2)cc1` [Compound 70] had a half-maximal inhibitory concentration (IC50) of 0.1 to 0.5 µM.
Compound `C[C@@]1(C#N)COCc2c(F)cc(C(=O)NCc3cc4cc(-c5cncc(N6CCC6)n5)ccc4cn3)cc21` [Compound 270] showed an IC50 of under 0.1 µM.
The compound `C[C@@]1(C#N)COCc2ccc(C(=O)NCc3cc4nc(-c5ccnc(N6CC[C@H](F)C6)n5)ccc4cn3)cc21` [Compound 341] registered a concentration for half-maximal inhibition (IC50) of under 0.1 µM.
In turn, `O=C(NCc1cc2nc(-c3cncc(C4CC4)n3)ccc2cn1)c1cnc2c(c1)C(O)(C(F)F)COC2` (centres unmarked) [Compound 246] showed an IC50 of 0.1 to 0.5 µM.
For the compound `C[C@@]1(C#N)COCc2ccc(C(=O)NCc3cc4nc(-c5cnc6cccnn56)ccc4cn3)cc21` [Compound 436], the IC50 was under 0.1 µM.
As to `C[C@@]1(F)COCc2ccc(C(=O)NCc3cc4nc(-c5cccc(N6CCC6)n5)ccc4cn3)cc21` [Compound 295], the IC50 was under 0.1 µM.
For `C[C@@]1(F)COCc2ncc(C(=O)NCc3cc4nc(-c5cccc(N6CCC6)n5)cnc4cn3)cc21` [Compound 216], the IC50 is under 0.1 µM.
The same measure, in the same setting: under `COCCNC(=O)c1cccc(C#Cc2ccnc(CNC(=O)c3ccc4c(c3)[C@](C)(C#N)COC4)c2)c1` [Compound 83] stands under 0.1 µM; under `C[C@@]1(CO)CCc2ccc(C(=O)NCc3cc4nc(-c5ccccc5)ccc4cn3)cc21` [Compound 90], over 1 µM; under `CO[C@@H]1CCN(c2cncc(-c3ccc4cnc(CNC(=O)c5ccc6c(c5)[C@](C)(F)COC6)cc4c3)n2)C1` [Compound 266], under 0.1 µM.
In turn, `C[C@@]1(C#N)COCc2ccc(C(=O)NCc3ncc4ccc(-c5ccccc5)cc4n3)cc21` [Compound 522] gave an IC50 of 0.1 to 0.5 µM.
The compound `COc1cc(Cl)ccc1-c1ccc2cnc(CNC(=O)c3ccc4c(c3)[C@](C)(C#N)COC4)cc2n1` [Compound 156] yielded an IC50 of under 0.1 µM.
Turning to `Cn1cc2c(n1)CN(c1ccc3cnc(CNC(=O)c4ccc5c(c4)[C@](C)(C#N)COC5)cc3n1)CC2` [Compound 458], the IC50 lay in the range of 0.1 to 0.5 µM.
`C[C@@]1(F)COCc2ccc(C(=O)NCc3cc4nc(-c5cccc(C6(O)CC(F)(F)C6)n5)ccc4cn3)cc21` [Compound 169]: the half-inhibitory concentration (IC50) was under 0.1 µM.
Compound `C[C@@]1(C#N)COCc2ccc(C(=O)NCc3cc(N4CCC(O)(c5ccccc5)C4)ccn3)cc21` (some centres unmarked) [Compound 54] showed an IC50 of 0.1 to 0.5 µM.

In another test the target is BRG-1 (Homo sapiens, UniProt P51532). Nature of the test: ATPase catalytic activity assay (ADP-Glo), BRG-1.
BRG-1, sequence (P51532 whole entry): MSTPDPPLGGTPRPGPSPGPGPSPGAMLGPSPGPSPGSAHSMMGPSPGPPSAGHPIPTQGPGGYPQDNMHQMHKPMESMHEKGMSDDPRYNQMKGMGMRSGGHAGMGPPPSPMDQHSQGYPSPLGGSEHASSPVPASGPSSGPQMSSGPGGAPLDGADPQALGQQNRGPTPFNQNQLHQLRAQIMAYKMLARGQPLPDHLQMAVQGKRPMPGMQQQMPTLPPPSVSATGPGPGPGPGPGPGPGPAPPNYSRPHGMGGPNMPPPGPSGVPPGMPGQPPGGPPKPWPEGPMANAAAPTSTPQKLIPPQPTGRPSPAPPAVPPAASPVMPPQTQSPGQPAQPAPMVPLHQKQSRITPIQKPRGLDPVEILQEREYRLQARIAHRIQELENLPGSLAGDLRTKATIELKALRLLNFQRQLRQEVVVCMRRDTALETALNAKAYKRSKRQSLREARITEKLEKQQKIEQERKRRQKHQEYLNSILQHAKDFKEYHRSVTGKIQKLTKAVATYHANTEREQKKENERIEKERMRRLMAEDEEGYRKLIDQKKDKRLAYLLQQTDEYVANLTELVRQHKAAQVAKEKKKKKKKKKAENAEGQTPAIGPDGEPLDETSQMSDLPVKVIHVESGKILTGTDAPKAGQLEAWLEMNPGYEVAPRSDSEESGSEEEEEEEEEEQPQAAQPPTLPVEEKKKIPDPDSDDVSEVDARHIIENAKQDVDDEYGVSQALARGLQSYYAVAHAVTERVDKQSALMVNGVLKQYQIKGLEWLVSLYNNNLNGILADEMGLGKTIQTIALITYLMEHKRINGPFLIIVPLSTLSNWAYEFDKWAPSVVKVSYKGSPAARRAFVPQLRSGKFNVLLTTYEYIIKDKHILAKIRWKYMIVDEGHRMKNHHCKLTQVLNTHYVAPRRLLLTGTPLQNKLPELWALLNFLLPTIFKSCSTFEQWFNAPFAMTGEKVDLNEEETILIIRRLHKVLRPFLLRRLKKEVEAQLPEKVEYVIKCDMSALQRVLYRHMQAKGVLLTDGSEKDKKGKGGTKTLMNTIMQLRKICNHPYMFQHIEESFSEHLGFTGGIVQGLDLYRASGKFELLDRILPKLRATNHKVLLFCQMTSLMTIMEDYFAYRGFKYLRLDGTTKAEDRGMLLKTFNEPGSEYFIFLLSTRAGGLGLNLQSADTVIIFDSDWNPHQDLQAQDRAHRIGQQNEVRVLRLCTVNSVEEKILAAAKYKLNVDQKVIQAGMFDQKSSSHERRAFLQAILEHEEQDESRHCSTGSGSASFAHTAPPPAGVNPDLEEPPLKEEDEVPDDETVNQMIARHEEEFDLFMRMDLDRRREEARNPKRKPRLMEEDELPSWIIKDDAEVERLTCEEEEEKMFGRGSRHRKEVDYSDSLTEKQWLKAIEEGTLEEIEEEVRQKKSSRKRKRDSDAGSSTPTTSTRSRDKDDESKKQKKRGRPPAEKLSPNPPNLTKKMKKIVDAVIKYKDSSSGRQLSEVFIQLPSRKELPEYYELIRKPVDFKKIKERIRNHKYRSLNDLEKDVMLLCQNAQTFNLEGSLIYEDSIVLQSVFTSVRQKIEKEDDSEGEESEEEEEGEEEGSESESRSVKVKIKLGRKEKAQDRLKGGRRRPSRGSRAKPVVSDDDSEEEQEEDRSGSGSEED
Conditions: not given
`CC(F)(F)c1cncc(-c2ccc3cnc(CNC(=O)c4ccc5c(c4)[C@](C)(C#N)COC5)cc3n2)n1` [Compound 299] showed an IC50 of 0.5 to 1 µM.
With `C[C@@]1(C#N)COCc2ccc(C(=O)NCc3cc(CCc4ccccc4)ccn3)cc21` [Compound 25], the IC50 was over 1 µM.
Regarding `COc1ccc([C@H]2C[C@@H](c3ccnc(CNC(=O)c4ccc5c(c4)[C@](C)(C#N)COC5)c3)C2)cc1` [Compound 70], the IC50 was 0.5 to 1 µM.
Same read-out and setting: for `C[C@@]1(C#N)COCc2c(F)cc(C(=O)NCc3cc4cc(-c5cncc(N6CCC6)n5)ccc4cn3)cc21` [Compound 270] the value was under 0.1 µM; for `C[C@@]1(C#N)COCc2ccc(C(=O)NCc3cc4nc(-c5ccnc(N6CC[C@H](F)C6)n5)ccc4cn3)cc21` [Compound 341], 0.1 to 0.5 µM.
Take `O=C(NCc1cc2nc(-c3cncc(C4CC4)n3)ccc2cn1)c1cnc2c(c1)C(O)(C(F)F)COC2` (centres unmarked) [Compound 246]: the IC50 is over 1 µM.
On the same count and under the same terms, under `C[C@@]1(C#N)COCc2ccc(C(=O)NCc3cc4nc(-c5cnc6cccnn56)ccc4cn3)cc21` [Compound 436] stands 0.1 to 0.5 µM; under `C[C@@]1(F)COCc2ccc(C(=O)NCc3cc4nc(-c5cccc(N6CCC6)n5)ccc4cn3)cc21` [Compound 295], 0.1 to 0.5 µM.
`C[C@@]1(F)COCc2ncc(C(=O)NCc3cc4nc(-c5cccc(N6CCC6)n5)cnc4cn3)cc21` [Compound 216]: the 50% inhibitory concentration (IC50) was in the range of 0.1 to 0.5 µM.
In the case of `COCCNC(=O)c1cccc(C#Cc2ccnc(CNC(=O)c3ccc4c(c3)[C@](C)(C#N)COC4)c2)c1` [Compound 83], the half-inhibitory concentration (IC50) is under 0.1 µM.
On to `C[C@@]1(CO)CCc2ccc(C(=O)NCc3cc4nc(-c5ccccc5)ccc4cn3)cc21` [Compound 90], for which the IC50 was over 1 µM.
On the same count and under the same terms, for `CO[C@@H]1CCN(c2cncc(-c3ccc4cnc(CNC(=O)c5ccc6c(c5)[C@](C)(F)COC6)cc4c3)n2)C1` [Compound 266] the value was 0.1 to 0.5 µM.
On the same count and under the same terms, for `C[C@@]1(C#N)COCc2ccc(C(=O)NCc3ncc4ccc(-c5ccccc5)cc4n3)cc21` [Compound 522] the value was 0.5 to 1 µM.
For `COc1cc(Cl)ccc1-c1ccc2cnc(CNC(=O)c3ccc4c(c3)[C@](C)(C#N)COC4)cc2n1` [Compound 156], the concentration for half-maximal inhibition (IC50) is 0.1 to 0.5 µM.
For the compound `Cn1cc2c(n1)CN(c1ccc3cnc(CNC(=O)c4ccc5c(c4)[C@](C)(C#N)COC5)cc3n1)CC2` [Compound 458], the half-inhibitory concentration (IC50) fell in the range of 0.5 to 1 µM.
Take `C[C@@]1(F)COCc2ccc(C(=O)NCc3cc4nc(-c5cccc(C6(O)CC(F)(F)C6)n5)ccc4cn3)cc21` [Compound 169]: the IC50 lay in the range of 0.1 to 0.5 µM.
The same measure, in the same setting: under `C[C@@]1(C#N)COCc2ccc(C(=O)NCc3cc(N4CCC(O)(c5ccccc5)C4)ccn3)cc21` (some centres unmarked) [Compound 54] stands over 1 µM.

Staying with this test, now noted: 1 h, read-out: BRG1 Max % Inhibition, ADP-Glo, 30 nM BRG-1, 400 μM ATP.
For the compound `CC(F)(F)c1cncc(-c2ccc3cnc(CNC(=O)c4ccc5c(c4)[C@](C)(C#N)COC5)cc3n2)n1` [Compound 299], the Emax amounted to 78%.
On the same count and under the same terms, under `C[C@@]1(C#N)COCc2ccc(C(=O)NCc3cc(CCc4ccccc4)ccn3)cc21` [Compound 25] stands 68%; under `COc1ccc([C@H]2C[C@@H](c3ccnc(CNC(=O)c4ccc5c(c4)[C@](C)(C#N)COC5)c3)C2)cc1` [Compound 70], 55%.
`C[C@@]1(C#N)COCc2c(F)cc(C(=O)NCc3cc4cc(-c5cncc(N6CCC6)n5)ccc4cn3)cc21` [Compound 270]: the Emax came to 98%.
In the case of `C[C@@]1(C#N)COCc2ccc(C(=O)NCc3cc4nc(-c5ccnc(N6CC[C@H](F)C6)n5)ccc4cn3)cc21` [Compound 341], the Emax is 93%.
The same measure, in the same setting: under `O=C(NCc1cc2nc(-c3cncc(C4CC4)n3)ccc2cn1)c1cnc2c(c1)C(O)(C(F)F)COC2` (centres unmarked) [Compound 246] stands 23%.
Regarding `C[C@@]1(C#N)COCc2ccc(C(=O)NCc3cc4nc(-c5cnc6cccnn56)ccc4cn3)cc21` [Compound 436], the Emax amounted to 85%.
As to `C[C@@]1(F)COCc2ccc(C(=O)NCc3cc4nc(-c5cccc(N6CCC6)n5)ccc4cn3)cc21` [Compound 295], the Emax came out at 93%.
`C[C@@]1(F)COCc2ncc(C(=O)NCc3cc4nc(-c5cccc(N6CCC6)n5)cnc4cn3)cc21` [Compound 216]: the Emax is 90%.
On to `COCCNC(=O)c1cccc(C#Cc2ccnc(CNC(=O)c3ccc4c(c3)[C@](C)(C#N)COC4)c2)c1` [Compound 83], for which the Emax turned out to be 99%.
As for `C[C@@]1(CO)CCc2ccc(C(=O)NCc3cc4nc(-c5ccccc5)ccc4cn3)cc21` [Compound 90], the Emax came to 24%.
As for `CO[C@@H]1CCN(c2cncc(-c3ccc4cnc(CNC(=O)c5ccc6c(c5)[C@](C)(F)COC6)cc4c3)n2)C1` [Compound 266], the Emax worked out at 96%.
Take `C[C@@]1(C#N)COCc2ccc(C(=O)NCc3ncc4ccc(-c5ccccc5)cc4n3)cc21` [Compound 522]: the Emax worked out at 83%.
Take `COc1cc(Cl)ccc1-c1ccc2cnc(CNC(=O)c3ccc4c(c3)[C@](C)(C#N)COC4)cc2n1` [Compound 156]: the Emax is 97%.
In the case of `Cn1cc2c(n1)CN(c1ccc3cnc(CNC(=O)c4ccc5c(c4)[C@](C)(C#N)COC5)cc3n1)CC2` [Compound 458], the Emax came out at 74%.
The same measure, in the same setting: under `C[C@@]1(F)COCc2ccc(C(=O)NCc3cc4nc(-c5cccc(C6(O)CC(F)(F)C6)n5)ccc4cn3)cc21` [Compound 169] stands 91%; under `C[C@@]1(C#N)COCc2ccc(C(=O)NCc3cc(N4CCC(O)(c5ccccc5)C4)ccn3)cc21` (some centres unmarked) [Compound 54], 42%.
